This is an account of results in US20090093454A1, “Chemical Compounds” (priority 2005, published 2009).

This series can be described thus: Compound cytotoxicity in absence of virus (CellTiter-Glo). In kind it is cell-based. The conditions noted are these: human. The procedure:
Compounds were profiled against two HIV-1 viruses, the M-tropic (CCR5 utilizing) Ba-L strain and the T-tropic (CXCR4 utilizing) IIIB strain. Both viruses were propagated in human peripheral blood lymphocytes. Compounds were tested for there ability to block infection of the HOS cell line (expressing hCXCR4/hCCR5/hCD4/pHIV-LTR-luciferase) by either HIV-1 Ba-L or HIV-1, IIIB. Compound cytotoxicity was also examined in the absence of virus addition.
HOS cells (expressing hCXCR4/hCCR5/hCD4/pHIV-LTR-luciferase) were harvested and diluted in Dulbeccos modified Eagles media supplemented with 2% FCS and non-essential amino acid to a concentration of 60,000 cells/ml. The cells were plated into 96-well plates (100 ul per well) and the plates were placed in a tissue culture incubator (37° C.; 5% CO2/95% air) for a period of 24 h.
Subsequently, 50 ul of the desired drug solution (4 times the final concentration) was added to each well and the plates were returned to the tissue culture incubator (37° C.; 5% CO2/95% air) for 1 h. Following this incubation 50 ul of diluted virus was added to each well (approximately 2 million RLU per well of virus). The plates were returned to the tissue culture incubator (37° C.; 5% CO2/95% air) and were incubated for a further 96 h.
Following this incubation the endpoint for the virally infected cultures was quantified following addition of Steady-Glo Luciferase assay system reagent (Promega, Madison, Wis.). Cell viability or non-infected cultures was measured using a CellTiter-Glo luminescent cell viability assay system (Promega, Madison, Wis.). All luminescent readouts are performed on a Topcount luminescence detector (Packard, Meridien, Conn.).
Compounds were profiled against two HIV-1 viruses, the M-tropic (CCR5 utilizing) Ba-L strain and the T-tropic (CXCR4 utilizing) IIIB strain. Ba-L was propagated in either peripheral blood lymphocytes or SupT1/CCR5+/CXCR4+ cells. IIIB was propagated in peripheral blood lymphocytes. Compounds were tested for their ability to block infection of the HOS cell line (expressing hCXCR4/hCCR5/hCD4/pHIV-LTR-luciferase) by either HIV-1 Ba-L or HIV-1, IIIB. Compound cytotoxicity was also examined in the absence of virus addition.
HOS cells (expressing hCXCR4/hCCR5/hCD4/pHIV-LTR-luciferase) were harvested and diluted in Dulbeccos modified Eagles media supplemented with 2% FCS to a concentration of 120,000 cells/ml. The cells were plated into 96-well plates (50 μl per well) and the plates were placed in a tissue culture incubator (370° C.; 5% CO2/95% air) for a period of 24 h.
Subsequently, 50 μl of the desired drug solution (2 times the final concentration) was added to each well and the plates were returned to the tissue culture incubator (370° C.; 5% CO2/95% air) for 1 h. Following this incubation, 60 μl of diluted virus (4 times the final concentration) was added to 60 μl of 2× the final desired concentration of the compound and 100 μl of this compound/virus mix was added to each well (approximately 2 million RLU per well of virus). The plates were returned to the tissue culture incubator (370° C.; 5% CO2/95% air) and were incubated for a further 96 h.

[1] abbreviates: HOS cells, no virus added, cell viability, read-out: Cytotox (pIC50) (converted).

Where a name gives a salt, the structure may show the parent alone. Read-outs that look alike come from different tables or passages of the source.

Turning to `CN1CCN(c2cccc3nc(CN4CCC[C@@H]5CCc6cccnc6[C@@H]54)cn23)CC1` [Example 22, (4aS,10bR)-1-{[5-(4-Methyl-1-piperazinyl)imidazo[1,2-a]pyridin-2-yl]methyl}-1,2,3,4,4a,5,6,10b-octahydro-1,10-phenanthroline], the IC50 at 96 h under setting [1] was more than 100 µM. The same measure, in the same setting: for `CN(C)CCCn1c(CN2CCC[C@@H]3CCc4cccnc4[C@@H]32)nc2ccccc21` [Example 11A, (3-{2-[(4aS,10bR)-3,4,4a,5,6,10b-Hexahydro-1,10-phenanthrolin-1(2H)-ylmethyl]-1H-benzimidazol-1-yl}propyl)dimethylamine] the value was more than 100 µM. Same read-out and setting: as for `CN1CCN(c2cccc3nc(CN4CCC[C@H]5CCc6cccnc6[C@H]54)cn23)CC1` [Example 27, (4aR,10bS)-1-{[5-(4-Methyl-1-piperazinyl)imidazo[1,2-a]pyridin-2-yl]methyl}-1,2,3,4,4a,5,6,10b-octahydro-1,10-phenanthroline], the figure is more than 10 µM; as for `CN1CCN(c2cccc3[nH]c(CN4CCC[C@@H]5CCc6cccnc6[C@H]54)nc23)CC1` (racemic) [Example 32, (trans)-1-{[4-(4-Methyl-1-piperazinyl)-1H-benzimidazol-2-yl]methyl}-1,2,3,4,4a,5,6,10b-octahydro-1,10-phenanthroline trifluoroacetate], more than 10 µM; as for `NCCCn1c(CN2CCC[C@H]3CCc4cccnc4[C@H]32)nc2ccccc21` (racemic) [Example 9, (cis)-3-[2-(3,4,4a,5,6,10b-Hexahydro-1,10-phenanthrolin-1(2H)-ylmethyl)-1H-benzimidazol-1-yl]-1-propanamine], 28.8 µM. On the same count and under the same terms, as for `CN(C)CCCn1c(CN2CCC[C@H]3CCc4cccnc4[C@H]32)nc2ccccc21` [Example 11B, (3-{2-[(4aR,10bS)-3,4,4a,5,6,10b-Hexahydro-1,10-phenanthrolin-1(2H)-ylmethyl]-1H-benzimidazol-1-yl}propyl)dimethylamine], the figure is more than 100 µM. In turn, `c1cnc2c(c1)CC[C@H]1CCCN(Cc3nc4ccccc4[nH]3)[C@H]21` (racemic) [Example 6, (trans)-1-(1H-Benzimidazol-2-ylmethyl)-1,2,3,4,4a,5,6,10b-octahydro-1,10-phenanthroline] gave an IC50 at 96 h of 31.6 µM. Turning to `CN1CCCC(Cn2c(CN3CCC[C@H]4CCc5cccnc5[C@H]43)nc3ccccc32)C1` (mixture of isomers) [Example 13, (cis)-1-({1-[(1-Methyl-3-piperidinyl)methyl]-1H-benzimidazol-2-yl}methyl)-1,2,3,4,4a,5,6,10b-octahydro-1,10-phenanthroline], the IC50 at 96 h under setting [1] is more than 100 µM. For `CN(C)CCCn1c(CN2CCC[C@H]3CCc4cccnc4[C@@H]32)nc2ccccc21` (stereo in doubt) [Example 10A, (3-{2-[(4aR,10bR)-3,4,4a,5,6,10b-Hexahydro-1,10-phenanthrolin-1(2H)-ylmethyl]-1H-benzimidazol-1-yl}propyl)dimethylamine], the IC50 at 96 h under setting [1] is more than 100 µM. Same read-out and setting: as for `CN1CCN(c2cccc3nc(CN4CCC[C@H]5CCc6cccnc6[C@H]54)[nH]c23)CC1` (racemic) [Example 33, (cis)-1-{[4-(4-Methyl-1-piperazinyl)-1H-benzimidazol-2-yl]methyl}-1,2,3,4,4a,5,6,10b-octahydro-1,10-phenanthroline], the figure is 37.2 µM; as for `CN(C)CCCn1c(CN2CCC[C@@H]3CCc4cccnc4[C@H]32)nc2ccccc21` (stereo in doubt) [Example 10B, (3-{2-[(4aS,10bS)-3,4,4a,5,6,10b-Hexahydro-1,10-phenanthrolin-1(2H)-ylmethyl]-1H-benzimidazol-1-yl}propyl)dimethylamine], more than 100 µM. As to `NCCCn1c(CN2CCC[C@@H]3CCc4cccnc4[C@H]32)nc2ccccc21` (racemic) [Example 8, (trans)-3-[2-(3,4,4a,5,6,10b-Hexahydro-1,10-phenanthrolin-1(2H)-ylmethyl)-1H-benzimidazol-1-yl]-1-propanamine], under setting [1], the IC50 at 96 h was more than 100 µM. Same read-out and setting: for `c1cnc2c(c1)CC[C@@H]1CCCN(Cc3nc4ccccc4n3Cc3ccncc3)[C@H]21` (racemic) [Example 12, (cis)-1-{[1-(4-Pyridinylmethyl)-1H-benzimidazol-2-yl]methyl}-1,2,3,4,4a,5,6,10b-octahydro-1,10-phenanthroline] the value was more than 100 µM. The compound `c1cnc2c(c1)CC[C@@H]1CCCN(Cc3nc4ccccc4[nH]3)[C@H]21` (racemic) [Example 7, (cis)-1-(1H-Benzimidazol-2-ylmethyl)-1,2,3,4,4a,5,6,10b-octahydro-1,10-phenanthroline] yielded an IC50 at 96 h of more than 100 µM. Regarding `CN1CCN(c2cccc3nc(CN4CCC[C@H]5CCc6cccnc6[C@H]54)cn23)CC1` (racemic) [Example 15B, (cis)-1-{[5-(4-Methyl-1-piperazinyl)imidazo[1,2-a]pyridin-2-yl]methyl}-1,2,3,4,4a,5,6,10b-octahydro-1,10-phenanthroline], the IC50 at 96 h under setting [1] was more than 100 µM. On the same count and under the same terms, as for `CN1CCN(c2cccc3nc(CN4CCC[C@@H]5CCc6cccnc6[C@H]54)cn23)CC1` (racemic) [Example 15A, (trans)-1-{[5-(4-Methyl-1-piperazinyl)imidazo[1,2-a]pyridin-2-yl]methyl}-1,2,3,4,4a,5,6,10b-octahydro-1,10-phenanthroline], the figure is more than 100 µM.
